According to US9365830B2, “Agents and methods for inhibiting human pluripotent stem cell growth” (VIACYTE, INC., priority 2010, dated 2016):
Where two headings read alike, the source gives them in different places.

Key:
Type in all cases: cell-based, human
hESCs = assay: Secondary screen, lowest effective dose on hESCs; conditions: lowest concentration that elicited cytotoxicity, range 0.1 to 50 μM, read-out: ED hESC (lowest effective dose)
Procedure: To expand the number of potential candidate hESC cytotoxic and inhibitory compounds, the complete LOPAC1280™ collection (containing 1,280 compounds) was screened. In the primary screen, cytotoxicity was tested on undifferentiated hESCs (about 3×10^4 BG01 cells) in 16 standard 96-well trays, in DC-HAIF defined medium on growth factor-reduced MATRIGEL™ diluted 1:200, which were fed daily (FIG. 7A). 10 μM of each compound was added to the hESCs one day after plating, and the cells were cultured for an additional 2 days. Plates were then fixed and stained for alkaline phosphatase (AP) to identify relative decreases in proliferation or growth of hESCs (as reduced AP staining), indicative of lower proportions of hESCs. See the circled wells in FIG. 7A.
(§1) Using a range of different concentrations from 0.1 to 50 μM, the forty compounds in Table 6 were re-screened (secondary screen) using hESCS and NPCs. The effective dose (ED) was defined as the lowest concentration of a compound that elicited cytotoxicity during the secondary screen. […] The darker wells were indicative of the increased numbers or percentages of proliferating or growing pluripotent stem cells in the wells. In addition, these 40 compounds were screened on differentiating definitive endoderm (DE) cell cultures in 96-well plate impedance assays (described above) to determine which of these compounds were not cytotoxic to definitive endoderm cells at the lowest effective dose on either hESC or NPC. […] See “ACEA DE” column in Table 6.

NPCs = assay: Secondary screen, lowest effective dose on NPCs; conditions: lowest concentration that elicited cytotoxicity, range 0.1 to 50 μM, read-out: ED NPC (lowest effective dose)
Procedure: In addition, the complete LOPAC1280™ collection was also screened for effects on neural progenitor cells (NPCs) that were derived from the hESCs. Neural progenitors were plated in serum-free MedII conditioned medium at 6×10^4 cells/well and fed daily. Two days after plating, 10 μM of each compound was added and the cells were cultured for an additional 2 days. […] Reduced crystal violet staining was indicative of lower proportions of NPCs. See circled wells in FIG. 7B. The left and right columns of the LOPAC1280™ plates from which the compounds were dispensed were empty and served as untreated controls. […] See Table 6 below listing the name and class of activity of each candidate compound identified in this screen (except chelerythrine chloride, which is listed in Table 5). ChCl was not included in the subsequent round of screening. Therefore only 40 compounds were tested further.
as §1

[1] = tested on: differentiating definitive endoderm (DE) cell cultures; assay: 96-well plate impedance assay (ACEA) on differentiating definitive endoderm at lowest effective dose; design: key: Viable: Compounds that did not appear to be cytotoxic toward differentiating DE cultures were marked as “viable”, meaning that the compound did not affect the survival, growth, proliferation or differentiation of the differentiated cells; conditions: at the lowest effective dose on either hESC or NPC
Excerpt: The impedance assay on the hESCs using the compounds in Table 4 above gave greater than twenty (20) hits. However, the ideal candidate compound of the present invention should not only be inhibitory or cytotoxic to human pluripotent stem cells, such as hESCs or hIPSCs, but should at the same time have no effect on cell viability of differentiated or differentiating cell populations including Stage 1, 2, 3, 4 and 5 type cells cultures (definitive endoderm, foregut endoderm, posterior foregut, pancreatic endoderm and endocrine cells, respectively). […] Approximately 3×10^4 hES cells were plated per well and grown for 24 hrs in DC-HAIF defined medium (i.e. StemPro® hESC SFM medium (Life Technologies, Carlsbad, Calif.). Stage 1 or definitive endoderm differentiation was then induced by changing the medium and culturing in RPMI, 100 ng/mL Activin A, and 10 ng/mL of FGF2. […] of GSK-3 beta Inhibitor 15 (Calbiochem #361558) as added to the culture for the first 24 hours of differentiation only. 10 μM of each of the candidate compounds were added about 48 hours or 2 days after differentiation was induced (see FIGS. 3 C & D, large arrowhead), and the cells were cultured for an additional 2 days.
as §1

[2] = tested on: adherent Stage 1 cell cultures of BG02; assay: Q-PCR marker gene expression, adherent Stage 1 cultures of BG02; conditions: for SOX17 gene expression: end of Stage 1, compared to DMSO control (FIG. 4D); for OCT4 and NANOG gene expression: end of Stage 1, compared to DMSO control (FIGS. 4A, 4B); for FOXA2 (HNF3β) expression: end of Stage 1, compared to DMSO control (FIG. 4C)
Excerpt: FIGS. 4A-4G are bar graphs showing the relative gene expression levels of OCT4 (FIG. 4A), NANOG (FIG. 4B), FOXA2 (FIG. 4C), SOX17 (FIG. 4D), SOX7 (FIG. 4E), PAX6 (FIG. 4F) and ZIC1 (FIG. 4G) BG02 with treatment of candidate selective cytotoxic agents from the LOPAC1280™ sublibrary (Table 4) to adherent Stage 1 cell cultures of BG02. Expression levels were normalized using the geometric mean of three housekeeping genes, GUSB, CYCG and TBP. The graphs depict fold regulation compared to the hESC sample. The large arrow heads indicate time of the drug treatment. D=DMSO (control); C=Chelerythrine Chloride; A=AG490; B=BTO-1; De=Dephostatin; S=SU6656.
Screen for Effects on Stages 1-5 Differentiation. To further determine whether these 5 candidate compounds added at Stage 1 affected other differentiated cell types (e.g. Stages 2-5: foregut endoderm, posterior foregut endoderm, pancreatic endoderm and endocrine precursor cells, respectively), hES were differentiated in the presence or absence of compounds, and RNA samples were taken at various stages for gene expression analysis by Q-PCR.
Gene expression levels were plotted relative to a DMSO treated control at the end of Stage 1 (FIG. 4), and relative to undifferentiated hESC aggregates (FIGS. 5 and 6). See “Control” in FIGS. 4, 5 & 6. […] Chelerythrine chloride, Dephostatin, SU 6656 and Tyrphostin AG 490 compounds each caused an increase in SOX17 gene expression as compared to the DMSO control, consistent with the gene expression profile for Stage 1 definitive endoderm cell cultures (FIG. 4D). However, Tyrphostin AG 490 (AG) and SU 6656 (SU) each caused a decrease in FOXA2 (HNF3β) expression as compared to the DMSO control, indicating adverse effects of these two compounds on definitive endoderm (FIG. 4C). Yet none of the compounds appeared to substantially impact expression of non-definitive endoderm markers including SOX7, PAX6 or ZIC1 (FIGS. 4 E, 4F & 4G), and were not, therefore, excluded on the basis of inducing differentiation to other cell types. […] This compound neither decreased OCT4 or NANOG expression, nor increased FOXA2 (HNF3β) or SOX17 expression, as would have been expected of a pluripotent stem cell-selective inhibitor/cytotoxic agent.

| Molecule | minimal effective concentration (hESCs) [µM] | minimal effective concentration (NPCs) [µM] | ACEA DE [1] | SOX17 gene expression [2] | OCT4 and NANOG gene expression [2] | FOXA2 (HNF3β) expression [2] | minimal effective concentration (hESCs; Homo sapiens) [µM] | minimal effective concentration (NPCs; Homo sapiens, 48 h) [µM] |
| --- | --- | --- | --- | --- | --- | --- | --- | --- |
| 22, 23-dihydroavermectin B1a+22,23-dihydroavermectin B1b [Ivermectin] | 5 | >50 | Viable |  |  |  |  |  |
| CN(N=O)c1cc(O)ccc1O [Dephostatin] |  |  |  | increase | subtle relative decrease |  |  |  |
| N#C/C(=C\c1ccc(O)c(O)c1)C(=O)NCc1ccccc1 [Tyrphostin AG 490] | 25 | 10 | Viable | increase | subtle relative decrease | decrease |  |  |
| CN(C)S(=O)(=O)c1ccc2c(c1)/C(=C/c1cc3c([nH]1)CCCC3)C(=O)N2 [SU 6656] |  |  | Viable | increase | subtle relative decrease | decrease | 25 | > 50 |
